Converted amounts (≈) assume the structure as drawn.
How the values were obtained:
Nox5 = Nox5 (Homo sapiens (Human), UniProt Q96PH1); assay: Amplex Red assay of Nox5 expressing HEK cells; type: cell-based; parameters: key: The sign “—” stands for “inactive”
Source text: (§1) HEK293 overexpressing Nox4 (CJ Nox4) cells were purchased from Redoxis, Lund, Sweden. HEK 293 cells expressing Nox5, Nox3 (HEK TRex) and CHO cells expressing Nox1, were a kind gift from Vincent Jaque Center Medical Universitaire, Geneva, Switzerland. Nox2 expressed in isolated neutrophils were isolated from whole blood (human), as previously described (Anvari E, et al., Free Radic Res 2015; 49:1308-1318).
(§2) HEK293T cells expressing tetracycline-inducible human (Nox3 or Nox4) and HEK293 cells stably expressing human Nox5 were generated as described previously (Serrander et al., 2007a,b). HEK cells were cultured in Dulbecco's modified Eagle medium (DMEM) with 4.5 g/l glucose, supplemented with FBS (10%), penicillin (100 U/ml) and streptomycin […] at 37° C. in air with 5% CO2.
(§3) Reactive oxygen produced in whole cells or in membrane preparation of Nox1, Nox3, Nox4, Nox5 and xanthine oxidase and glucose oxidase were determined using Amplex Red as detection probe of formed H2O2. Amplex Red (10-acetyl-3,7-dihydroxyphenoxazine) in combination with HRP and co-factors reacts with H2O2 in a 1:1 stoichiometry to form a highly fluorescent resorufin excitated at 544 nm producing emission at 590 nm.
(§4) Adherent cells (CHO, HEK) were collected by trypsinization, centrifuged, washed with HBSS, counted, and resuspended in HBSS. Cells were seeded in 96-well black flat bottom plates at a density of 50,000-100,000 cells/well. All compounds were dissolved in DMSO and concentrations ranging from 0.003 to 200 μM were tested in Nox cellular assays with a final concentration of DMSO of 1%. Cells were incubated at 37° C. with the compounds for 30 minutes before measurement. Cells expressing Nox1 and Nox2 were activated with the PKC activator PMA (0.1 μM). Nox5 was activated with the Ca2+ ionophore ionomycin (1 μM) and further enforced with PMA. The CJ HEK 293 cells overexpressed Nox4 constitutively. In the HTS screen HEK 293 TRex was used and tetracycline (1 mg/ml) was added 18 h before measurement to induce Nox4 expression. Production of hydrogen peroxide by Nox in intact cells was measured using Amplex Red fluorescence as described by Jaquet V, et al., Br J Pharmacol 2011; 164:507-520. Assay reagents including HRP (0.1 mM) and Amplex Red (50 μM) were added to initiate production of hydrogen peroxide. Fluorescence was read in a fluorescence plate reader at 37° C. every minute between 30-60 minutes.

Nox1 = Nox1 (Homo sapiens (Human), UniProt Q9Y5S8); assay: Amplex Red assay of Nox1 expressing CHO cells; type: cell-based; parameters: key to IC50 Nox1: The sign “—” stands for “inactive”
Sequence of Nox1 (Q9Y5S8 whole entry): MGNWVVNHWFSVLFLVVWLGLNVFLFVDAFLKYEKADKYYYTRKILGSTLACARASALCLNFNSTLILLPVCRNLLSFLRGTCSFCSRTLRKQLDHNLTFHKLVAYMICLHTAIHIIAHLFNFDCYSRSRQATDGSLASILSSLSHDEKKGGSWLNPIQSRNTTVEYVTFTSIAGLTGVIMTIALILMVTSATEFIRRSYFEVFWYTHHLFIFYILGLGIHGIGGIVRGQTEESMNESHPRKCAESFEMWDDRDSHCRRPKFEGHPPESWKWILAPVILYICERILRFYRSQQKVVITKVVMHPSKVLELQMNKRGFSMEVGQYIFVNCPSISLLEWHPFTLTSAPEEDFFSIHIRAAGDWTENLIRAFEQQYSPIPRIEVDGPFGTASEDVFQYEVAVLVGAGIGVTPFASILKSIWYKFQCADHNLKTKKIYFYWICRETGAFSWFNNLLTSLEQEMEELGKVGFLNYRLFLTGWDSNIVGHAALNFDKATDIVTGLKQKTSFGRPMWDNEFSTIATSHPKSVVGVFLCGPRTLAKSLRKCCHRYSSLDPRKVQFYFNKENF
Sequence of Nox1 (P13498 2-195 partner): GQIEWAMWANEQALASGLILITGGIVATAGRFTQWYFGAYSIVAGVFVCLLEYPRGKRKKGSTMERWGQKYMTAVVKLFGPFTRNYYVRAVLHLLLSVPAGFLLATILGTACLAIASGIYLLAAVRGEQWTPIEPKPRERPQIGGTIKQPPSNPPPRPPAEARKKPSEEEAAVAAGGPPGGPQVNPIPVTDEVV
Procedure: as §1
CHO cells expressing Nox1 were cultured in DMEM 12 medium (DMEM/F12) supplemented with FBS (10%), penicillin (100 U/ml) and streptomycin (100 μg/ml) at 37° C. in air with 5% CO2.
as §3, §4

Nox3 = Nox3 (Homo sapiens (Human), UniProt Q9HBY0); assay: Amplex Red assay of Nox3 expressing HEK cells; type: cell-based; parameters: key: The sign “—” stands for “inactive”
Sequence of Nox3 (Q9HBY0 whole entry): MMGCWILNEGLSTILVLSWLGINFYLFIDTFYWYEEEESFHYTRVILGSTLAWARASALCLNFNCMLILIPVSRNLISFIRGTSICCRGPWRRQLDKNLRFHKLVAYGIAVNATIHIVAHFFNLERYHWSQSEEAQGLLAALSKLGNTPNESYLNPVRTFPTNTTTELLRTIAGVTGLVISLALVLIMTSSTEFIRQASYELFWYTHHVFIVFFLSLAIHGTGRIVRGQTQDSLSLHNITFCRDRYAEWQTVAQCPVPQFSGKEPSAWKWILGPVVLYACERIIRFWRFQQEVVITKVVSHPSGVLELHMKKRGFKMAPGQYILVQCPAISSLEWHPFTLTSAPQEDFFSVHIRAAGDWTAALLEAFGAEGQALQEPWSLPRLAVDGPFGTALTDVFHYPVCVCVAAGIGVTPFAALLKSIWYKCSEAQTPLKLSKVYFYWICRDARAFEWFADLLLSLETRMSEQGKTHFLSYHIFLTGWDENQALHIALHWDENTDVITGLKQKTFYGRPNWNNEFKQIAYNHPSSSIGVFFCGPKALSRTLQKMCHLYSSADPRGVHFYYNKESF
Sequence of Nox3 (P13498 2-195 partner): as the sequence (P13498 2-195 partner) above
Source text: as §1, §2, §3
as §4, with “Nox5 was activated with the Ca2+ ionophore ionomycin (1 μM) and further enforced with PMA. The CJ HEK 293 cells overexpressed Nox4 constitutively. In the HTS screen HEK 293 TRex was used and tetracycline (1 mg/ml) was added 18 h before measurement to induce Nox4 expression.” left out, “Assay reagents including HRP (0.1 mM) and Amplex Red (50 μM) were added to initiate production of hydrogen peroxide.” left out

[1] = system: Nox1, Nox2, Nox3 and Nox5; assay: Activity on Nox1, Nox2, Nox3 and Nox5; type: cell-based
Procedure: as §3
as §4, with “Assay reagents including HRP (0.1 mM) and Amplex Red (50 μM) were added to initiate production of hydrogen peroxide.” left out
Compounds of the invention were tested for selectivity against Nox2 in isolated neutrophils from whole blood (human), as previously described (Anvari E, et al., vide supra). Levels of ROS from PMA stimulated primary human neutrophils were measured using isoluminol-dependent chemiluminescence. […] The dye is excited by ROS and the light emitted when the excited molecules return to the ground state, relative to the amount of released ROS, is measured. […] Luminescence was detected using FluoStar Optima (BMG, Labtech). […]

[2] = Microsomal metabolic stability, human; type: in vitro ADME; settings: pooled liver microsomes, pH 7.4, read-out: Metab. stab, human t1/2
Procedure: (§5) The microsomal metabolic stability assay utilizes pooled human, or animal (mouse) species, liver microsomes with supplemented cofactor (NADPH) to primarily facilitate cytochrome P450 (CYP) reactivity against target compound. Test compound (1 μM incubation concentration) and microsomes (0.5 mg/ml incubation concentration) were diluted in 0.1 M phosphate buffer, pH 7.4, in a volume of 150 μl. The reaction was initiated with addition of NADPH (1 mM). The incubation times were 0, 5, 15, 40 min and the reaction was quenched, at each time point, by addition of 100 μl acetonitrile containing Warfarin as IS. The plate was then sealed, centrifuged and frozen at −20 C until LC-MS/MS analysis.

[3] = Determination of solubility; type: physicochemical; settings: 10 mM potassium phosphate buffer, aqueous buffer, kinetic from dmso stock; 10 mM potassium phosphate pH 7.4, 24 h, room temperature; read-out: Kinetic solub.
Procedure: Two μl of test compound (from 10 mM DMSO stock) were diluted 100× in 10 mM potassium phosphate pH 7.4 in a HPLC glass vial, sealed and incubated for 24 h under rotation (900 rpm) at room temperature. After the incubation 150 μl were transferred to conical glass inserts and centrifuged for 20 min at 10,000×g. Two μl of the supernatant were transferred to a 96-well plate, diluted 100× with acetonitrile/H2O (60/40, vol/vol) and analyzed by LC-MS/MS.

[4] = Microsomal metabolic stability, mouse; type: in vitro ADME; settings: pooled liver microsomes, pH 7.4, read-out: Metab. stab, mouse t1/2
Procedure: as §5

[5] = Plasma protein binding, mouse; type: in vitro ADME; settings: 10 μM in plasma, equilibrium dialysis 4 h, read-out: fu % mouse plasma protein
Procedure: Example compounds were incubated at 10 μM in plasma and then equilibrium dialysed for 4 h, using a rapid equilibrium device. Protein binding (fu %) was determined by LS/MS as previously described (Anvari E, et al., vide supra).

Sequence of Nox5 (Q96PH1 whole entry): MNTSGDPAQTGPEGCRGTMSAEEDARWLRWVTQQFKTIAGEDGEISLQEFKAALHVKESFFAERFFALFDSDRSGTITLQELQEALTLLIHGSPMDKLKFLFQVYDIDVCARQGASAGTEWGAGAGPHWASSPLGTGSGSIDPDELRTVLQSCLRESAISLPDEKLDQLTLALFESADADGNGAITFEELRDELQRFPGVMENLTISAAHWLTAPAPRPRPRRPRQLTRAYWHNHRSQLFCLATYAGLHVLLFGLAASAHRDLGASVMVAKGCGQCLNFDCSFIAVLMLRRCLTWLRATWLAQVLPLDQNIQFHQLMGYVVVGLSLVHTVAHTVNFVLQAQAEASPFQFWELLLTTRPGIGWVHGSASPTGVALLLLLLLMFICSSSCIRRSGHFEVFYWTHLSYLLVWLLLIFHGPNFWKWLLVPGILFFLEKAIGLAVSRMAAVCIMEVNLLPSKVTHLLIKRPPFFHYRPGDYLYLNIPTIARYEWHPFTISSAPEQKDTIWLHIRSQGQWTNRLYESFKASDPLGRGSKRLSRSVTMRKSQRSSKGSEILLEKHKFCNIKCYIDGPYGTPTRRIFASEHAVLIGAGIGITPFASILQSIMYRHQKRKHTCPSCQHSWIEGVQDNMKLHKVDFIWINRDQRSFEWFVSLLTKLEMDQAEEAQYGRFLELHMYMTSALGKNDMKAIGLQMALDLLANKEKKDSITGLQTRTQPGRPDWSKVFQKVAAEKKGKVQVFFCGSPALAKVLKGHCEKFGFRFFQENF

Row | Compound | IC50 Nox5 (Nox5) | IC50 Nox1 (Nox1) | IC50 Nox3 (Nox3) | Activity on Nox1, Nox2, Nox3 and Nox5 [1] | half-life at 1 μM [2] | solubility kinetic at 24 h [3] | half-life at 1 μM [4] | fraction unbound at 4 h, 10 μM [5]
1 | Cc1ccccc1CCNS(=O)(=O)c1c(C)cccc1Cl [Example 11, 2-chloro-6-methyl-N-[2-(2-methylphenyl)ethyl]benzene-1-sulfonamide] | — | — | — | inactive |  |  |  | 
2 | Cc1ccccc1C(F)CNS(=O)(=O)c1c(Cl)cc(Br)cc1Cl (racemic) [Example 35, 4-bromo-2,6-dichloro-N-[2-fluoro-2-(2-methylphenyl)ethyl]benzene-1-sulfonamide] | — | — |  |  | 11 to 13 min | 4.5 µM (≈ 1.99 µg/mL) | 6 to 20 min | 0.0002
3 | Cc1cc(O)cc(C)c1S(=O)(=O)NCCc1ccccc1O [Example 48, 4-hydroxy-N-[2-(2-hydroxyphenyl)ethyl]-2,6-dimethyl-benzenesulfonamide] | — | — |  |  | 69 min | 97 µM (≈ 31.2 µg/mL) | 16 min | 0.005
4 | O=S(=O)(NCCc1ccccc1Cl)c1c(Cl)cc(C2CC2)cc1Cl [Example 26, 2,6-dichloro-N-[2-(2-chlorophenyl)ethyl]-4-cyclopropylbenzene-1-sulfonamide] | — | — | — | inactive |  |  |  | 
5 | O=S(=O)(NCCc1ccccc1O)c1c(Cl)cc(Br)cc1Cl [Example 38, 4-bromo-2,6-dichloro-N-[2-(2-hydroxyphenyl)ethyl]benzenesulfonamide] | — | — |  |  | 9 to 11 min | 77 µM (≈ 32.7 µg/mL) | 2 to 4 min | 0.0056
6 | Cc1cc(C)c(S(=O)(=O)NCCc2ccccc2O)c(C)c1 [Example 37, N-[2-(2-hydroxyphenyl)ethyl]-2,4,6-trimethylbenzene-1-sulfonamide] | — | — |  |  | 6 to 10 min | > 100 µM | 2 to 4 min | 0.0056
7 | Cc1ccccc1CCNS(=O)(=O)c1c(Cl)cc(Br)cc1Cl [Example 17, 4-bromo-2,6-dichloro-N-[2-(2-methylphenyl)ethyl]benzene-1-sulfonamide] | — | — | — | inactive | 3 to 4 min | 0.16 µM (≈ 0.0677 µg/mL) | 2 to 3 min | 0.0004
8 | COc1cc(C)c(S(=O)(=O)NCCc2ccccc2O)c(C)c1 [Example 47, N-[2-(2-hydroxyphenyl)ethyl]-4-methoxy-2,6-dimethyl-benzenesulfonamide] | — | — |  |  | 14 min | > 100 µM | 1 min | 0.017
9 | Cc1cc(Cl)c(S(=O)(=O)NCCc2ccccc2O)c(C)c1O [Example 44, 6-chloro-3-hydroxy-N-[2-(2-hydroxyphenyl)ethyl]-2,4-dimethyl-benzenesulfonamide] | — | — |  |  | 36 min | 94 µM (≈ 33.4 µg/mL) | 7 min | 0.025
10 | COc1cc(C)c(S(=O)(=O)NCCc2ccccc2Cl)c(C)c1 [Example 46, N-[2-(2-chlorophenyl)ethyl]-4-methoxy-2,6-dimethyl-benzenesulfonamide] | — | — |  |  | 2 min | 16 µM (≈ 5.66 µg/mL) | 2 min | 0.0021
